Laboratory results from ChEMBL document CHEMBL1201862, “PubChem BioAssay data set” (2004).
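How tested: cells in 96-well plates exposed to compound for 48 hours at five concentrations. GI50 = concentration required for 50% inhibition of growth.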 Active and inactive are the calls of the source. Cut-off read from the data, not from the text of the source: active = GI50 up to about 1.1 µM and inactive = higher.

What was measured:
Assay in all cases: NCI anticancer screen, dose series, 48 h
ACHN = test system: ACHN
NCI-H522 = test system: NCI-H522
NCI-H23 = test system: NCI-H23
RPMI-8226 = test system: RPMI-8226
MDA-MB-231 = test system: MDA-MB-231
SW-620 = test system: SW-620
T47D = test system: T47D
OVCAR-8 = test system: OVCAR-8
NCI-H226 = test system: NCI-H226
SK-MEL-28 = test system: SK-MEL-28
SK-OV-3 = test system: SK-OV-3
A498 = test system: A498
MDA-MB-435 = test system: MDA-MB-435
U-251 = test system: U-251
K562 = test system: K562
HOP-62 = test system: HOP-62
HCT-116 = test system: HCT-116
EKVX = test system: EKVX

Measured: GI50

CC(=O)N1CN2C(=O)CCC2c2cc(C)ccc21 (centres undefined)
inactive: ACHN > 100 µM | NCI-H522 > 100 µM | NCI-H23 > 100 µM | RPMI-8226 > 100 µM | MDA-MB-231 > 100 µM | SW-620 > 100 µM | T47D > 100 µM | OVCAR-8 > 100 µM | NCI-H226 > 100 µM | SK-MEL-28 > 100 µM | SK-OV-3 > 100 µM | A498 > 100 µM | MDA-MB-435 > 100 µM | U-251 > 100 µM | K562 > 100 µM | HOP-62 > 100 µM | HCT-116 > 100 µM | EKVX > 100 µM

COC(=O)C1(F)C(=O)NC(=O)NC1OC (centres undefined)
inactive: ACHN 29 µM | NCI-H522 75.5 µM | NCI-H23 30.3 µM | RPMI-8226 90.6 µM | SW-620 > 100 µM | OVCAR-8 34.1 µM | NCI-H226 > 100 µM | SK-MEL-28 59.6 µM | SK-OV-3 > 100 µM | A498 > 100 µM | U-251 24.5 µM | K562 96.2 µM | HOP-62 25.5 µM | HCT-116 7.8 µM

CC(C)[Si](OC1=CCCCCC12C(=O)N(C)c1ccccc12)(C(C)C)C(C)C (centres undefined)
inactive: ACHN 16.8 µM | NCI-H522 16.9 µM | NCI-H23 19.5 µM | RPMI-8226 15.1 µM | MDA-MB-231 22.4 µM | SW-620 17.3 µM | T47D 2.88 µM | OVCAR-8 21 µM | NCI-H226 20.2 µM | SK-MEL-28 23.6 µM | SK-OV-3 20.5 µM | A498 15.8 µM | MDA-MB-435 25.1 µM | U-251 18.5 µM | K562 24.1 µM | HOP-62 21.6 µM | EKVX 17.7 µM

C=CC(C)(C)/C(=C\CO[Si](C(C)C)(C(C)C)C(C)C)C(=O)N(C)c1ccccc1I
inactive: ACHN 13.1 µM | NCI-H522 5.62 µM | NCI-H23 11 µM | RPMI-8226 2.96 µM | MDA-MB-231 13.3 µM | SW-620 12.6 µM | T47D 9.98 µM | OVCAR-8 14.8 µM | SK-MEL-28 14.2 µM | SK-OV-3 16.3 µM | A498 20.3 µM | MDA-MB-435 24.9 µM | U-251 11.5 µM | HOP-62 16.3 µM | HCT-116 3.13 µM | EKVX 16 µM

COC(=O)c1c(C(=O)OC)c2ccccn2c1-c1cc(OC)c(Br)c(=O)o1
inactive: ACHN > 100 µM | NCI-H522 68.7 µM | NCI-H23 > 100 µM | RPMI-8226 > 100 µM | MDA-MB-231 83.8 µM | SW-620 > 100 µM | T47D > 100 µM | OVCAR-8 > 100 µM | NCI-H226 > 100 µM | SK-MEL-28 > 100 µM | SK-OV-3 > 100 µM | A498 > 100 µM | MDA-MB-435 > 100 µM | K562 > 100 µM | HOP-62 > 100 µM | HCT-116 > 100 µM | EKVX > 100 µM

CCOC(=O)Cc1nnc2n(-c3ccccc3)c(=O)c3ccccc3n12
inactive: ACHN > 100 µM | NCI-H522 77.4 µM | NCI-H23 > 100 µM | MDA-MB-231 > 100 µM | SW-620 > 100 µM | T47D > 100 µM | OVCAR-8 > 100 µM | NCI-H226 > 100 µM | SK-MEL-28 55.7 µM | SK-OV-3 > 100 µM | A498 > 100 µM | MDA-MB-435 > 100 µM | U-251 > 100 µM | K562 > 100 µM | HOP-62 62.4 µM | HCT-116 90.8 µM | EKVX > 100 µM
